Source: the NIST ThermoML archive (doi:10.1016/j.jct.2011.04.023)
± gives the expanded uncertainty stated by the source.

Experiments:
[1] = Crystal; visual observation
[2] = Molar enthalpy of transition or fusion; conditions: Crystal; DSC

Normal melting temperature [1]: 56.2 ± 0.4 °C | Molar enthalpy of transition or fusion [2]: 2.41 ± 0.0813 kcal/mol
Structure (SMILES): CCCCCC[n+]1cccc(C)c1.Cc1ccc(S(=O)(=O)[O-])cc1 [1-hexyl-3-methylpyridinium 4-methylbenzenesulfonate]
